Results on 19 compounds are retold here after patent US8329702B2, “Heterocycles useful as modulators of ion channels” (Vertex Pharmaceuticals Incorporated, priority 2005, dated 2012).

T1 sequence (Q9Y5Y9 whole entry, looked up): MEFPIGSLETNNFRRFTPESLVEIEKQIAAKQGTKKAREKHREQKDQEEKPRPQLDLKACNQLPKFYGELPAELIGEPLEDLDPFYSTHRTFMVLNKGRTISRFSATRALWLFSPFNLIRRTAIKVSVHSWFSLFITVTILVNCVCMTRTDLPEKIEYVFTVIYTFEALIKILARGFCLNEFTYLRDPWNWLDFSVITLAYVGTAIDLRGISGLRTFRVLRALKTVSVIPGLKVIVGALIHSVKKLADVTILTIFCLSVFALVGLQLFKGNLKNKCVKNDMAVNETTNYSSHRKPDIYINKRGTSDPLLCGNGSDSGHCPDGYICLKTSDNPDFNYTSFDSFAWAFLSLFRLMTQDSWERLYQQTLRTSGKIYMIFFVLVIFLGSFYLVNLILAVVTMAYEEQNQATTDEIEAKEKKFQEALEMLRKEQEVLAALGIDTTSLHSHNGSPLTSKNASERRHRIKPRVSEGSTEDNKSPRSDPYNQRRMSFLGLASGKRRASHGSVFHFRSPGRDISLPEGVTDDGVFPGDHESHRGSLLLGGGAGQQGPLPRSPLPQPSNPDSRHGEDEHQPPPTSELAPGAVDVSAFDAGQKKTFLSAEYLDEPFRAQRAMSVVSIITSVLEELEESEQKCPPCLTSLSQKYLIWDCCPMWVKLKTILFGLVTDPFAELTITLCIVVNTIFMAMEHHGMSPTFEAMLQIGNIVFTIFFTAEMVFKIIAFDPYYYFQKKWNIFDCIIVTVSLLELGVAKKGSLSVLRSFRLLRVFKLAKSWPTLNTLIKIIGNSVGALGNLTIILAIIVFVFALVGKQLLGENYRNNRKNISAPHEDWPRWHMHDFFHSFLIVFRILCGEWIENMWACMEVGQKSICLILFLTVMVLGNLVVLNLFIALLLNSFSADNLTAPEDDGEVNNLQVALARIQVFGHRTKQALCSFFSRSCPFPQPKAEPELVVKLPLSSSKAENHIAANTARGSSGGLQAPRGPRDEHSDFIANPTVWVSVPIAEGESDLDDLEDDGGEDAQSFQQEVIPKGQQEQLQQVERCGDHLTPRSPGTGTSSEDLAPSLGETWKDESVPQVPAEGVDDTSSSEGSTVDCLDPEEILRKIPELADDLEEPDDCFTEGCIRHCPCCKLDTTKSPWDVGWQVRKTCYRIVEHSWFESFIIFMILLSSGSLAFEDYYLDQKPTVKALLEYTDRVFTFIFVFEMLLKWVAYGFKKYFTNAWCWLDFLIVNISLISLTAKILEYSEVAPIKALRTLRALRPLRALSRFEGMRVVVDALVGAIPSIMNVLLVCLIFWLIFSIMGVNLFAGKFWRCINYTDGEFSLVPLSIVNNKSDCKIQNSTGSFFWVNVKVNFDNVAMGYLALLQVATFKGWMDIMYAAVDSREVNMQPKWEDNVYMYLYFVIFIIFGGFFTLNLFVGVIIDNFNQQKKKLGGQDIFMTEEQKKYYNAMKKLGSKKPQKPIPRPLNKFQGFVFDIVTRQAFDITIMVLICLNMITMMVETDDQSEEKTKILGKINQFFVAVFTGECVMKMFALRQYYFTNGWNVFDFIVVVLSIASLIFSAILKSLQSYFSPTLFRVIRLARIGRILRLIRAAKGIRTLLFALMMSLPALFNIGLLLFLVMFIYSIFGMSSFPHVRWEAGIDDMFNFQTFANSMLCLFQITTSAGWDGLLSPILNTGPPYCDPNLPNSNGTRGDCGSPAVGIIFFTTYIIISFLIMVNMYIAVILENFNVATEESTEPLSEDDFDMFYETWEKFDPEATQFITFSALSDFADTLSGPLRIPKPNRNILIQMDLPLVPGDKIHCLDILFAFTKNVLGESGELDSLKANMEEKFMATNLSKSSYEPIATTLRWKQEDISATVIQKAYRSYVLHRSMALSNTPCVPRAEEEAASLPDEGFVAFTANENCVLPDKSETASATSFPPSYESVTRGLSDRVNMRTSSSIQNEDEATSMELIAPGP

The first assay has as its target T1, NaV1.8 (Homo sapiens, UniProt Q9Y5Y9). Briefly: Activity against NaV1.8 channel (Table 3). In kind it is cell-based.
Conditions: not given
As for the experimental part:
Compounds of the invention are useful as antagonists of voltage-gated sodium ion channels. Antagonist properties of test compounds were assessed as follows. Cells expressing the NaV of interest were placed into microtiter plates. After an incubation period, the cells were stained with fluorescent dyes sensitive to the transmembrane potential. The test compounds were added to the microtiter plate. The cells were stimulated with either a chemical or electrical means to evoke a NaV dependent membrane potential change from unblocked channels, which was detected and measured with trans-membrane potential-sensitive dyes. Antagonists were detected as a decreased membrane potential response to the stimulus. The optical membrane potential assay utilized voltage-sensitive FRET sensors described by Gonzalez and Tsien (See, Gonzalez, J. E. and R. Y. Tsien (1995) “Voltage sensing by fluorescence resonance energy transfer in single cells” Biophys J 69(4): 1272-80, and Gonzalez, J. E. and R. Y. Tsien (1997) “Improved indicators of cell membrane potential that use fluorescence resonance energy transfer” Chem Biol 4(4): 269-77) in combination with instrumentation for measuring fluorescence changes such as the Voltage/Ion Probe Reader (VIPR®) (See, Gonzalez, J. E., K. Oades, et al. (1999) “Cell-based assays and instrumentation for screening ion-channel targets” Drug Discov Today 4(9): 431-439).
24 hours before the assay on VIPR, CHO cells endogenously expressing a NaV1.2 type voltage-gated NaV are seeded in 96-well poly-lysine coated plates at 60,000 cells per well. Other subtypes are performed in an analogous mode in a cell line expressing the NaV of interest.
The following is an example of how NaV1.3 inhibition activity is measured using the optical membrane potential method#2. Other subtypes are performed in an analogous mode in a cell line expressing the NaV of interest.
Patch clamp electrophysiology was used to assess the efficacy and selectivity of sodium channel blockers in dorsal root ganglion neurons. Rat neurons were isolated from the dorsal root ganglions and maintained in culture for 2 to 10 days in the presence of NGF (50 ng/ml) (culture media consisted of NeurobasalA supplemented with B27, glutamine and antibiotics). Small diameter neurons (nociceptors, 8-12 μm in diameter) have been visually identified and probed with fine tip glass electrodes connected to an amplifier (Axon Instruments). The “voltage clamp” mode has been used to assess the compound's IC50 holding the cells at −60 mV. In addition, the “current clamp” mode has been employed to test the efficacy of the compounds in blocking action potential generation in response to current injections. The results of these experiments have contributed to the definition of the efficacy profile of the compounds.
TTX-resistant sodium currents were recorded from DRG somata using the whole-cell variation of the patch clamp technique. Recordings were made at room temperature (˜22° C.) with thick walled borosilicate glass electrodes (WPI; resistance 3-4 MΩ) using an Axopatch 200B amplifier (Axon Instruments). After establishing the whole-cell configuration, approximately 15 minutes were allowed for the pipette solution to equilibrate within the cell before beginning recording. Currents were lowpass filtered between 2-5 kHz and digitally sampled at 10 kHz. Series resistance was compensated 60-70% and was monitored continuously throughout the experiment. The liquid junction potential (−7 mV) between the intracellular pipette solution and the external recording solution was not accounted for in the data analysis. Test solutions were applied to the cells with a gravity driven fast perfusion system (SF-77; Warner Instruments).
Dose-response relationships were determined in voltage clamp mode by repeatedly depolarizing the cell from the experiment specific holding potential to a test potential of +10 mV once every 60 seconds. […]
With `Oc1ccccc1-c1csc(N2CCCCC2)n1` [Compound 1], the concentration for half-maximal inhibition (IC50) lay within 10 to 20 µM.

With `CC(C)COC(=O)N1CCN(c2nc(-c3ccccc3O)cs2)CC1` [Compound 2], the IC50 is greater than 20 µM.

`COc1ccccc1-c1csc(N2CCN(C(=O)OC(C)(C)C)CC2)n1` [Compound 3]: the concentration for half-maximal inhibition (IC50) fell in the range of 10 to 20 µM.

Regarding `CCCCS(=O)(=O)N1CCN(c2nc(-c3ccccc3O)cs2)CC1` [Compound 4], the 50% inhibitory concentration (IC50) is greater than 20 µM.

Take `O=C([C@@H]1CCCO1)N1CCN(c2nc(-c3ccccc3O)cs2)CC1` [Compound 5]: the IC50 was greater than 20 µM.

On to `CC(C)OC(=O)N1CCN(c2nc(-c3ccccc3O)cs2)CC1` [Compound 6], for which the 50% inhibitory concentration (IC50) was greater than 20 µM.

For the compound `O=C(O[C@H]1CCOC1)N1CCN(c2nc(-c3ccccc3O)cs2)CC1` [Compound 7], the concentration for half-maximal inhibition (IC50) is greater than 20 µM.

Regarding `COCCOC(=O)N1CCN(c2nc(-c3ccccc3O)cs2)CC1` [Compound 8], the IC50 is greater than 20 µM.

Turning to `O=C(OCc1ccccc1)N1CCN(c2nc(-c3ccccc3F)cs2)CC1` [Compound 9, Benzyl 4-(4-(2-fluorophenyl)thiazol-2-yl)piperazine-1-carboxylate], the concentration for half-maximal inhibition (IC50) was greater than 20 µM.

On to `CC(C)COC(=O)N1CCN(c2nc(-c3ccccc3F)cs2)CC1` [Compound 10, Isobutyl 4-(4-(2-fluorophenyl)thiazol-2-yl)piperazine-1-carboxylate], for which the concentration for half-maximal inhibition (IC50) is greater than 20 µM.

In the case of `CC(C)(C)COC(=O)N1CCN(c2nc(-c3ccccc3F)cs2)CC1` [Compound 11], the IC50 is greater than 20 µM.

Consider `O=C(OC1CCOC1)N1CCN(c2nc(-c3ccccc3F)cs2)CC1` (stereo not shown) [Compound 12], for which the 50% inhibitory concentration (IC50) is greater than 20 µM.

Take `COCCOC(=O)N1CCN(c2nc(-c3ccccc3F)cs2)CC1` [Compound 13]: the IC50 was greater than 20 µM.

Turning to `O=C([C@H]1CCCO1)N1CCN(c2nc(-c3ccccc3F)cs2)CC1` [Compound 14], the IC50 was greater than 20 µM.

With `CC(C)[C@@H](O)C(=O)NCC1CCN(c2nc(-c3ccccc3O)ns2)CC1` [Compound 15], the 50% inhibitory concentration (IC50) is greater than 20 µM.

`CC(C)COC(=O)NC1CCN(c2nc(-c3ccccc3O)ns2)CC1` [Compound 16, Isobutyl 1-(3-(2-hydroxyphenyl)-1,2,4-thiadiazol-5-yl)piperidin-4-ylcarbamate]: the 50% inhibitory concentration (IC50) is greater than 20 µM.

Consider `CC(C)COC(=O)N1CCN(c2nsc(-c3ccccc3O)n2)CC1` [Compound 17, Isobutyl 4-(5-(2-hydroxyphenyl)-1,2,4-thiadiazol-3-yl)piperazine-1-carboxylate], for which the IC50 is greater than 20 µM.

The next assay deals with T1, NaV1.8.
Test: not given
As to conditions: read-out: TTX IC50; cited from earlier work.
On to `NC1=N[C@H](O)[C@H]2[C@H]3O[C@]4(O)O[C@@H]([C@@H](O)[C@@]2(N1)[C@@H]4O)[C@]3(O)CO` [TTX, tetrodotoxin], for which the IC50 was greater than 50 µM.

Test system in the next assay: not given
Test: not given
As to conditions: neuropathic pain, modest efficacy; cited from earlier work.
In the case of `NCC1(CC(=O)O)CCCCC1` [Gabapentin], the “patients in which it works” value was 60%.

As usually defined, the IC50 is the concentration needed to halve the response being measured.
